Test results taken from US8242145B2, “Cyclic diaryl ether compounds as antagonists of prostaglandin D2 receptors” (Panmira Pharmaceuticals, LLC, priority 2008, dated 2012).

What was measured:
human DP2 receptor = target: T1, human DP2 receptor (Homo sapiens, UniProt Q9Y5Y4); experiment: DP2/CRTH2 radioligand binding assay using [3H]PGD2; conditions: hDP2 (CRTH2) binding assay
T1 construct: expressed in transfected cells
T1 sequence (Q9Y5Y4 1-395): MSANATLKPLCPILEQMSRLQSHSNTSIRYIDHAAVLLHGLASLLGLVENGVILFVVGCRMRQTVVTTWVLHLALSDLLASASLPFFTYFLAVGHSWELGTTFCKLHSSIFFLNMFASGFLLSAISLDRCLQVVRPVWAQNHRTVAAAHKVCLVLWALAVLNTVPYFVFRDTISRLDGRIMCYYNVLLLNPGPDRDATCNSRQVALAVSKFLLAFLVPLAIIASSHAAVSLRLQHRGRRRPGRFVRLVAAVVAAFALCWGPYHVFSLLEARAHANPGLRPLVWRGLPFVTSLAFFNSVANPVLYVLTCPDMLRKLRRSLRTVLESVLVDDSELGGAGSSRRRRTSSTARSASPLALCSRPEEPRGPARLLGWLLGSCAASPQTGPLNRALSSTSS
Description: The ability of a compound to bind to the human DP2 receptor is assessed via a radioligand binding assay using [^3H]PGD2. HEK293 cells stably expressing recombinant human DP2 are resuspended in 10 mM Hepes, 7.4 containing 1 mM DTT, lysed and centrifuged at 75,000×g to pellet the membranes. The membranes are resuspended in 10 mM Hepes, 7.4 containing 1 mM DTT and 10% glycerol to approximately 5 mg protein/ml. Membranes (2-10 μg protein/well) are incubated in 96-well plates with 1 nM [^3H]PGD2 and test compound in Assay Buffer (50 mM Hepes, 10 mM MnCl2, 1 mM EDTA, plus or minus 0.2% human serum albumin, pH 7.4) for 60 minutes at room temperature. The reactions are terminated by rapid filtration through Whatman GF/C glass fibre filter plates. The filter plates were pre-soaked in 0.33% polythylenimine for 30 minutes at room temperature then washed in Wash Buffer (50 mM Hepes, 0.5 M NaCl pH 7.4) prior to harvesting. After harvesting, the filter plates are washed 3 times with 1 ml cold Wash Buffer then dried. Scintillant is then added to the plates and the radioactivity retained on the filters is determined on a Packard TopCount (Perkin Elmer). Specific binding is determined as total radioactive binding minus non-specific binding in the presence of 10 μM PGD2. IC50s were determined using GraphPad prism analysis of drug titration curves.

[1] = target: T2, recombinant human CRTH2 receptor (Homo sapiens, UniProt Q9Y5Y4); experiment: GTPγS binding assay; assay type: biochemical; conditions: +HSA; read-out: hDP2 GTPγS μM (+HSA)
T2 construct: expressed in transfected cells
T2 sequence (Q9Y5Y4 1-395): T1 sequence (Q9Y5Y4 1-395)
Description: The ability of a compound to inhibit binding of GTP to DP2 is assessed via a membrane GTPγS assay. CHO cells stably expressing the recombinant human CRTH2 receptor are resuspended in 10 mM Hepes, 7.4 containing 1 mM DTT, lysed and centrifuged at 75,000×g to pellet the membranes. The membranes are resuspended in 10 mM Hepes, 7.4 containing 1 mM DTT and 10% glycerol. Membranes (˜12.5 μg per well) are incubated in 96-well plates with 0.05 nM [^35S]-GTPγS, 80 nM PGD2, 5 μM GDP, and test compound in Assay Buffer (50 mM Hepes, pH 7.4, 100 mM NaCl, 5 mM MgCl2 and 0.2% human serum albumin) for 60 minutes at 30° C. The reactions are terminated by rapid filtration through Whatman GF/B glass fibre filter plates. The filter plates are washed 3 times with 1 ml cold Assay Buffer and dried. Scintillant is then added to the plates and the radioactivity retained on the filters is determined on a Packard TopCount (Perkin Elmer). Specific binding is determined as total radioactive binding minus non-specific binding in the absence of the ligand (80 nM PGD2). IC50s were determined using Graphpad prism analysis of drug titration curves.

human DP1 receptor = target: T3, human DP1 receptor (Homo sapiens, UniProt Q13258); experiment: DP1 radioligand binding assay using [3H]BWA868C; conditions: hDP1 binding
T3 construct: tissue Biological Specialty Corporation; host or cells: human platelets, membranes
T3 sequence (Q13258 1-359): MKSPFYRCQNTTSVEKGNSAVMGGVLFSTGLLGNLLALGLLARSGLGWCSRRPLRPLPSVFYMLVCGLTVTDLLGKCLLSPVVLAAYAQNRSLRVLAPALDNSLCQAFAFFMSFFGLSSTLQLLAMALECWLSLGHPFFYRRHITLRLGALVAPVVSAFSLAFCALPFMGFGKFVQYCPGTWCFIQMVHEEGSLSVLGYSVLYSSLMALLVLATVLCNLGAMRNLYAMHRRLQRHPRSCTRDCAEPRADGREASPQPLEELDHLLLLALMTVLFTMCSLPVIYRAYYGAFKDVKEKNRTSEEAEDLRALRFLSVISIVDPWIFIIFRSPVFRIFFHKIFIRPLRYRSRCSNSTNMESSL
Description: The ability of a compound to bind to the human DP1 receptor was evaluated via a radioligand membrane binding assay using the DP1 selective synthetic ligand [^3H]BW A868C. Packed human platelets (Biological Specialty Corporation), were resuspended in 6 volumes of Hepes/HBSS buffer (10 mM Hepes, 1 mM DTT in Hanks Balanced Salt Solution (HBSS)), lysed and centrifuged at 75,000×g to pellet the membranes. Membranes were resuspended in Hepes/HBSS buffer to approximately 12 mg protein/ml. Membranes (20 μg protein/well) are incubated in 96-well plates with 2 nM [^3H]BWA868C and test compound in Assay Buffer (50 mM Hepes, 10 mM MnCl2, 1 mM EDTA, plus or minus 0.2% human serum albumin, pH 7.4) for 60 minutes at room temperature. The reactions are terminated by rapid filtration through Whatman GF/C glass fibre filter plates. The filter plates were pre-soaked in 0.33% polethylenimine for 30 minutes at room temperature then washed in Wash Buffer (50 mM Hepes, 0.5 M NaCl pH 7.4) prior to harvesting. After harvesting, the filter plates are washed 3 times with 1 ml cold Wash Buffer then dried. Scintillant is then added to the plates and the radioactivity retained on the filters is determined on a Packard TopCount (Perkin Elmer). Specific binding is determined as total radioactive binding minus non-specific binding in the presence of 10 μM BW A868C. IC50s were determined using GraphPad prism analysis of drug titration curves.

C[C@@H]1[C@H](c2ccccc2)OC(=O)N1Cc1cc(Br)ccc1Oc1cccc(CC(=O)O)c1 [Compound 1-49, {3-[4-Bromo-2-((4R,5S)-4-methyl-2-oxo-5-phenyl-oxazolidin-3-ylmethyl)-phenoxy]-phenyl}-acetic acid]
IC50 (human DP2 receptor): < 300 nM
IC50 [1]: < 0.3 µM
IC50 (human DP1 receptor): < 300 nM

COc1ccc(CC(=O)O)cc1Oc1ccc(C(F)(F)F)cc1CN1CCOC1=O [Compound 1-9, {4-Methoxy-3-[2-(2-oxo-oxazolidin-3-ylmethyl)-4-trifluoromethyl-phenoxy]-phenyl}-acetic acid]
IC50 (human DP2 receptor): < 300 nM
IC50 [1]: < 0.3 µM
IC50 (human DP1 receptor): > 1000 nM

COc1ccc(CC(=O)O)cc1Oc1ccc(Br)cc1CN1CCOC1=O [Compound 1-14, {3-[4-Bromo-2-(2-oxo-oxazolidin-3-ylmethyl)-phenoxy]-4-methoxy-phenyl}-acetic acid]
IC50 (human DP2 receptor): < 300 nM
IC50 [1]: < 0.3 µM
IC50 (human DP1 receptor): > 1000 nM

Cc1noc(C)c1-c1ccc(Oc2cccc(CC(=O)O)c2)c(CN2C(=O)O[C@H](c3ccccc3)[C@@H]2C)c1 [Compound 1-76, {3-[4-(3,5-Dimethyl-isoxazol-4-yl)-2-((4S,5R)-4-methyl-2-oxo-5-phenyl-oxazolidin-3-ylmethyl)-phenoxy]-phenyl}-acetic acid]
IC50 (human DP2 receptor): < 300 nM
IC50 [1]: 0.3 to 1 µM
IC50 (human DP1 receptor): < 300 nM

C[C@@H]1[C@H](c2cc(F)cc(F)c2)OC(=O)N1Cc1cc(Br)ccc1Oc1cccc(CC(=O)O)c1 [Compound 1-51]
IC50 (human DP2 receptor): < 300 nM
IC50 [1]: < 0.3 µM
IC50 (human DP1 receptor): 300 to 1000 nM

COc1ccc(CC(=O)O)cc1Oc1ccc(-c2cn[nH]c2)cc1CN1C(=O)O[C@H](c2ccccc2)[C@@H]1C [Compound 1-42, {4-Methoxy-3-[2-((4S,5R)-4-methyl-2-oxo-5-phenyl-oxazolidin-3-ylmethyl)-4-(1H-pyrazol-4-yl)-phenoxy]-phenyl}-acetic acid]
IC50 (human DP2 receptor): < 300 nM
IC50 [1]: < 0.3 µM
IC50 (human DP1 receptor): > 1000 nM

COc1ccc(CC(=O)O)cc1Oc1ccc(Br)cc1CN1C(=O)O[C@@H]2Cc3ccccc3[C@@H]21 [Compound 2-5, {3-[4-Bromo-2-((3aS,8aR)-2-oxo-8,8a-dihydro-3aH-indeno[1,2-d]oxazol-3-ylmethyl)-phenoxy]-4-methoxy-phenyl}-acetic acid]
IC50 (human DP2 receptor): < 300 nM
IC50 [1]: < 0.3 µM
IC50 (human DP1 receptor): > 1000 nM

C[C@@H]1[C@H](c2ccc(Cl)cc2)OC(=O)N1Cc1cc(Br)ccc1Oc1cccc(CC(=O)O)c1 [Compound 1-50, (3-{4-Bromo-2-[(4R,5S)-5-(4-chloro-phenyl)-4-methyl-2-oxo-oxazolidin-3-ylmethyl]-phenoxy}-phenyl)-acetic acid]
IC50 (human DP2 receptor): < 300 nM
IC50 [1]: 0.3 to 1 µM
IC50 (human DP1 receptor): 300 to 1000 nM

COc1ccc(CC(=O)O)cc1Oc1ccc(C(F)(F)F)cc1CN1C(=O)O[C@H](c2ccccc2)[C@@H]1C [Compound 1-32, {4-Methoxy-3-[2-((4S,5R)-4-methyl-2-oxo-5-phenyl-oxazolidin-3-ylmethyl)-4-trifluoromethyl-phenoxy]-phenyl}-acetic acid]
IC50 (human DP2 receptor): < 300 nM
IC50 [1]: < 0.3 µM
IC50 (human DP1 receptor): > 1000 nM

C[C@H]1[C@@H](c2ccccc2)OC(=O)N1Cc1cc(C(F)(F)F)ccc1Oc1cc(CC(=O)O)ccc1OCc1ccccc1 [Compound 1-33, {4-Benzyloxy-3-[2-((4S,5R)-4-methyl-2-oxo-5-phenyl-oxazolidin-3-ylmethyl)-4-trifluoromethyl-phenoxy]-phenyl}-acetic acid]
IC50 (human DP2 receptor): < 300 nM
IC50 [1]: < 0.3 µM
IC50 (human DP1 receptor): > 1000 nM

COc1ccc(CC(=O)O)cc1Oc1ccc(Cl)cc1CN1C(=O)O[C@@H](c2ccccc2)[C@H]1C [Compound 1-59, {3-[4-Chloro-2-((4R,5S)-4-methyl-2-oxo-5-phenyl-oxazolidin-3-ylmethyl)-phenoxy]-4-methoxy-phenyl}-acetic acid]
IC50 (human DP2 receptor): < 300 nM
IC50 [1]: < 0.3 µM
IC50 (human DP1 receptor): > 1000 nM

C[C@H]1[C@@H](c2ccccc2)OC(=O)N1Cc1cc(Br)ccc1Oc1cc(F)cc(CC(=O)O)c1 [Compound 1-26, {3-[4-Bromo-2-((4S,5R)-4-methyl-2-oxo-5-phenyl-oxazolidin-3-ylmethyl)-phenoxy]-5-fluoro-phenyl}-acetic acid]
IC50 (human DP2 receptor): < 300 nM
IC50 [1]: < 0.3 µM
IC50 (human DP1 receptor): < 300 nM

CC(C(=O)O)c1cccc(Oc2ccc(C(F)(F)F)cc2CN2CCOC2=O)c1 (stereo not drawn) [Compound 1-10, 2-{3-[2-(2-Oxo-oxazolidin-3-ylmethyl)-4-trifluoromethyl-phenoxy]-phenyl}-propionic acid]
IC50 (human DP2 receptor): < 300 nM
IC50 [1]: > 1 µM
IC50 (human DP1 receptor): > 1000 nM

Cc1nc(C)c(-c2ccc(Oc3cccc(CC(=O)O)c3)c(CN3C(=O)O[C@H](c4ccccc4)[C@@H]3C)c2)s1 [Compound 1-75, {3-[4-(2,4-Dimethyl-thiazol-5-yl)-2-((4S,5R)-4-methyl-2-oxo-5-phenyl-oxazolidin-3-ylmethyl)-phenoxy]-phenyl}-acetic acid]
IC50 (human DP2 receptor): < 300 nM
IC50 [1]: 0.3 to 1 µM
IC50 (human DP1 receptor): < 300 nM

COc1ccc(CC(=O)O)cc1Oc1ccc(-c2ccncc2)cc1CN1C(=O)O[C@H](c2ccccc2)[C@@H]1C [Compound 1-41, {4-Methoxy-3-[2-((4S,5R)-4-methyl-2-oxo-5-phenyl-oxazolidin-3-ylmethyl)-4-pyridin-4-yl-phenoxy]-phenyl}-acetic acid]
IC50 (human DP2 receptor): < 300 nM
IC50 [1]: 0.3 to 1 µM
IC50 (human DP1 receptor): > 1000 nM

C[C@@H]1[C@H](c2ccccc2)OC(=O)N1Cc1cc(Br)ccc1Oc1cc(Cl)cc(CC(=O)O)c1 [Compound 1-56, {3-[4-Bromo-2-((4R,5S)-4-methyl-2-oxo-5-phenyl-oxazolidin-3-ylmethyl)-phenoxy]-5-chloro-phenyl}-acetic acid]
IC50 (human DP2 receptor): < 300 nM
IC50 [1]: < 0.3 µM
IC50 (human DP1 receptor): > 1000 nM

C[C@@H]1[C@H](c2cc(C(F)(F)F)cc(C(F)(F)F)c2)OC(=O)N1Cc1cc(Br)ccc1Oc1cccc(CC(=O)O)c1 [Compound 1-52]
IC50 (human DP2 receptor): < 300 nM
IC50 [1]: > 1 µM
IC50 (human DP1 receptor): > 1000 nM

COc1ccc(CC(=O)O)cc1Oc1ccc(Br)cc1CN1C(=O)O[C@@H](c2ccc(Cl)cc2)[C@H]1C [Compound 1-62]
IC50 (human DP2 receptor): < 300 nM
IC50 [1]: 0.3 to 1 µM
IC50 (human DP1 receptor): > 1000 nM
